Data set [1] addresses T1, CaMKK2 auto-phosphorylation (Homo sapiens, UniProt Q96RR4).
T1 construct: endogenous in cells; host or cells: HEK293
As to the kind of experiment: HEK293 cells, ionomycin stimulation, Western blot for phospho-CaMKK2. Type of data set: cell-based. Conditions: 10 μM; for inhibition of CaMKK2 auto-phosphorylation (densitometry): 2 hours pre-treatment, ionomycin 0.5 μg/mL 15 minutes; for inhibition of CaMKK2 auto-phosphorylation compared to STO-609: versus STO-609 10 μM. The procedure: (§1) Preliminary screening of Compounds EY301-EY305 was performed in vitro in HEK293 cells (all tested at 10 μM). In brief, HEK293 cells were cultured to sub confluence in […] complete media and 1% fetal bovine serum (FBS), incubated at 37° C. in 5% CO2. Cultured cells were then switched to serum-free media overnight prior to initiation of experiments. […] Cells were then stimulated with the calcium ionophore ionomycin (0.5 μg/mL) for 15 minutes, following which the cells were washed, harvested, and lysed for recovery of total protein using standard methods. Following standard protein gel electrophoresis, Western blot was then performed for either phospho-CaMKK2 (FIG. 4A) or phospho-AMPK (FIG. 4B) for each condition. Studies were performed in triplicate.

Data set [2] concerns AMPK phosphorylation. As to the kind of experiment: HEK293 cells, ionomycin stimulation, Western blot for phospho-AMPK. Type of data set: cell-based. Conditions: 10 μM; for inhibition of phospho-AMPK (densitometry): 2 hours pre-treatment, ionomycin 0.5 μg/mL 15 minutes; for inhibition of phospho-AMPK compared to STO-609: versus STO-609 10 μM. The procedure:
as §1
(A western blot detects proteins with antibodies after separation by electrophoresis.)

Data set [3] concerns wild-type BALB/c mice. The experiment in a line: NonGLP toxicology, in vivo tolerability of topically administered SMICs. Conditions: topical 1.5 mg/mL twice daily for 14 days. The procedure: NonGLP toxicology studies of locally administered candidate SMICs EY1006.A001.B001 and EY1001.A002.B001 was assessed in 2-3-month old wild-type BALB/c mice. assessing local toxicity by clinical assessment and by histopathology. Both compounds were topically administered at 1.5 mg/mL twice daily for 14 days.

Data set [4] concerns OGVHD mouse model. The experiment in a line: Mouse model of OGVHD, proof-of-concept with topical lead SMICs (Example 11). Type of data set: in vivo, mice. Conditions: for prevention of signs of OGVHD versus vehicle and prednisolone: 1.5 mg/mL topical daily for two weeks, p<0.05 vs vehicle or prednisolone. The procedure: Preclinical proof-of-concept studies in a mouse model of OGVHD were performed to assess the clinical efficacy of topical administration of the two most promising candidate SMICs identified in Examples 6 and 7, EY1006.A001.B001 and EY1001.A002.B001. […] Briefly, the OGVHD mouse model was initiated by isolation of bone marrow and splenic T cells from 2-3-month old mice C57BL/6J donor mice, and transplantation of isolated bone marrow and T cells to recipient 2-3-month old BALB/c mice, following ablation of recipient bone marrow. Recipient BALB/c mice were then allowed to convalesce for approximately 14 days before initiation of further experimental procedures.
OGVHD clinical findings include lid margin edema, lid crusting, tear film disruption, conjunctival chemosis, and keratopathy. These findings were clinically graded following one week and two weeks of treatment using a quantitative scoring system adapted from previously published studies (33, 34). […] By contrast, vehicle control-treated eyes had lid margin swelling and scarring with lash and periocular fur loss, eyelid crusting, chemosis, abnormal tear film, and keratopathy. […] For this scoring system and experiment Mild disease was score 0-5, moderate disease was score 6-10 and severe disease was score >10.

The subject of data set [5] is experimental OGVHD. The text has this:
Ocular graft versus host disease (OGVHD), a disease in which T cells and macrophages are known to play key pathogenic roles, represents a model ocular inflammatory disease since A) it is known to share overlapping pathologic and clinical features with other, more common ocular inflammatory diseases (i.e. aqueous tear deficiency, meibomian gland dysfunction, uveitic disease, others); and B) the at-risk population is well defined since it occurs in individuals undergoing allogeneic bone marrow transplant for hematologic malignancies, autoimmune diseases, and other disorders. As such, experimental models of OGVHD represent attractive systems in which to study the therapeutic potential of targeting and inhibiting CaMKK2 for ophthalmic diseases. […] In brief, 2-3-month old mice of C57BL/6 and BALB/c strains are used for this model. C57BL/6 mice are sacrificed, following which RPMI-1640 medium is flushed in the diaphyseal channel of both recovered tibias and femurs. […]
Following BMT+T cell transfer, recipient BALB/c mice were allowed to convalesce for 14 days prior to initiation of experimental procedures. […] At the conclusion of the treatment period, eyes were then graded (in masked fashion) for signs of OGVHD and scored according to a modified clinical grading system (33, 34). […]

For data set [6] the following is noted: with sonication; cited from earlier work.
The conditions of data set [7]: in vivo; cited from earlier work.
Data set [8] deals with T2, aryl hydrocarbon receptors (Homo sapiens, UniProt P35869).
T2 sequence (P35869 11-848): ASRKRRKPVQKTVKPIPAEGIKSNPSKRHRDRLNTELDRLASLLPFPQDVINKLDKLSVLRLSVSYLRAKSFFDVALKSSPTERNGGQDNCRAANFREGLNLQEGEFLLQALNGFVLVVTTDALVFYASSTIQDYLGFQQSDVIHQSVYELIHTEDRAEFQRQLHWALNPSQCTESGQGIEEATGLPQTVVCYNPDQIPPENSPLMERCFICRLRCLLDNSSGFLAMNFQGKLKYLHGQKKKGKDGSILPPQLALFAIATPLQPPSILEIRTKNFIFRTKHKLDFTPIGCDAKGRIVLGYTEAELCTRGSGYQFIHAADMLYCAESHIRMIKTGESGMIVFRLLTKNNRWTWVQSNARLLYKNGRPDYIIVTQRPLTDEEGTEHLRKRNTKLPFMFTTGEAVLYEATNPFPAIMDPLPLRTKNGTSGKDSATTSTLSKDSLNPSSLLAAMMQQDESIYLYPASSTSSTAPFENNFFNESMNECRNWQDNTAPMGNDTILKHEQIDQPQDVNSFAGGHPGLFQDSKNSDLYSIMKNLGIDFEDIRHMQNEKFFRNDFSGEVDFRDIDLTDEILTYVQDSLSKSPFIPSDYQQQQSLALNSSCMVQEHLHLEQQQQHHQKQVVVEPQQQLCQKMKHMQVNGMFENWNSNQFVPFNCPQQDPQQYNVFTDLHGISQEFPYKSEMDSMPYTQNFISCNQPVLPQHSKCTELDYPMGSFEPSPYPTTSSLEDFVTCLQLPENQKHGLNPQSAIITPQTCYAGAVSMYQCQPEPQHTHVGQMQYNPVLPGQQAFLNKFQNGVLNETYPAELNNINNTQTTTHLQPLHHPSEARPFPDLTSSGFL
Conditions: suspected off-target effect; cited from earlier work.

T1 sequence (Q96RR4 whole entry): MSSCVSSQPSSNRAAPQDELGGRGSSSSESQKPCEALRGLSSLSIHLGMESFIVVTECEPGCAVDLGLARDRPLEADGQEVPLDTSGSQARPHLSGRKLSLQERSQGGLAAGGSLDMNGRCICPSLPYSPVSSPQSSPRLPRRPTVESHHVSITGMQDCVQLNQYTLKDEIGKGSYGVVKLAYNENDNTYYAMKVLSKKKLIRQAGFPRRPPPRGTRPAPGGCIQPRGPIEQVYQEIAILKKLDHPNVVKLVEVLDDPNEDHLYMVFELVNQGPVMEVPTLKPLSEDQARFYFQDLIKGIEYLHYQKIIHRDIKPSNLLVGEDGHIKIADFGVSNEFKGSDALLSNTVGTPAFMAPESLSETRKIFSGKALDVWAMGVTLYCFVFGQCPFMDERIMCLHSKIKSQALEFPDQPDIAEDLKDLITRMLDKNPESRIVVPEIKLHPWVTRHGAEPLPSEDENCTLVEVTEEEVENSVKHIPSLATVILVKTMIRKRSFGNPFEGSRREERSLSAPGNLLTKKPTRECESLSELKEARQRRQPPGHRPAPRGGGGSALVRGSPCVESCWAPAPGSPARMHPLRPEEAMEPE

For the compound `Cn1c(=O)n2c3ccccc3nc2c2ccc(C(=O)O)cc21` [Compound 3], in data set [1], the “inhibition of CaMKK2 auto-phosphorylation (densitometry)” value is listed as “robust inhibition”. For the same compound, in data set [2], the “inhibition of phospho-AMPK (densitometry)” value was “partial inhibition” and the “inhibition of phospho-AMPK compared to STO-609” value was “comparable to STO-609”.
`O=C(O)c1ccc2c(c1)n(CCF)c(=O)n1c3ccccc3nc21` [Compound 7]: the systemic toxicity result in data set [3] is on record as “no evidence of failure to thrive or mortality”. Further, the “prevention of signs of OGVHD versus vehicle and prednisolone” value in data set [4] was “superior to vehicle and prednisolone”. Further, in data set [4] (1.5 mg/mL topical daily, from day 14 post-BMT for two weeks, n=5), the “severity of clinical OGVHD findings” value is “reduced severity of clinical OGVHD findings with efficacy similar to STO-609”.
As to `CCn1c(=O)n2c3ccccc3nc2c2ccc(C(=O)O)cc21` [Compound 4], in data set [1], the “inhibition of CaMKK2 auto-phosphorylation (densitometry)” value is listed as “robust inhibition” and the “inhibition of CaMKK2 auto-phosphorylation compared to STO-609” value is listed as “more effective as compared to STO-609”. For the same compound, in data set [2], the “inhibition of phospho-AMPK (densitometry)” value is on record as “partial inhibition” and the “inhibition of phospho-AMPK compared to STO-609” value is on record as “comparable to STO-609”.
For `O=C(O)c1ccc2c(c1)[nH]c(=O)n1c3ccccc3nc21` [Compound 1], in data set [1], the “inhibition of CaMKK2 auto-phosphorylation (densitometry)” value was “robust inhibition” and the “inhibition of CaMKK2 auto-phosphorylation compared to STO-609” value was “more effective as compared to STO-609”.
With `O=C(O)c1ccc2c3c1cccc3c(=O)n1c3ccccc3nc21` [STO-609, 7-oxo-7H-benzimidazo[2,1-a]benz[de]isoquinoline-3-carboxylic acid], in data set [5] (STO-609 1.5 mg/mL local ocular, daily for 2 weeks from day 14 post-BMT, vehicle median score 17), the “severity of OGVHD, median score” value is 5. The “reduction in OGVHD score” value in data set [5] (stated as demonstrated and established for STO-609) is reported as 50%. Besides, the “prevention of signs of OGVHD versus vehicle and prednisolone” value in data set [4] was “superior to vehicle and prednisolone”. The “maximum concentration in DMSO” value in data set [6] was 10 mM. Further, in data set [7], the oral bioavailability result was “poor oral bioavailability”. In data set [8], the “off-target effect on aryl hydrocarbon receptors” value is on record as “activation of aryl hydrocarbon receptors”.
For `CC(C)Cn1c(=O)n2c3ccccc3nc2c2ccc(C(=O)O)cc21` [Compound 5], the “inhibition of CaMKK2 auto-phosphorylation (densitometry)” value in data set [1] is “robust inhibition”. In addition, in data set [2], the “inhibition of phospho-AMPK (densitometry)” value is “partial inhibition” and the “inhibition of phospho-AMPK compared to STO-609” value is “comparable to STO-609”.

These data come from US12221447B2, “Methods and compositions for drugs to treat ophthalmic diseases” (Duke University, priority 2018, dated 2025).
